Source: patent publication US20210283163A1, “COMPOSITIONS AND METHODS FOR THE TREATMENT OF ACUTE AND CHRONIC PRURITIS” (Duke University, priority 2018, published 2021)

Legend:
mTRPA1 mutants (M1-M13) = assay: Whole-cell patch clamp in CHO cells transfected with mutant mTrpa1 cDNAs (M1-M13); type: cell-based, mouse; details: for effect of mutations on induced currents: M2, M3, M4, M5, and M10; for induced currents in mutants: mutants M1, M6, M7, M8, M9, and M12, AITC 50 μM, miR-711 10 μM
Experimental: Constructs. The cDNAs of mouse pcDNA3.1-Trpa1, pcDNA3.1-Trpv1, pcDNA3.1-Trpv2, pcDNA3.1-Trpv3, and pcDNA3.1-Trpv4 were kindly provided Dr. Sun Work Hwang from Korea University. Mouse Trpa1 cDNA was subcloned into pCGN-HA backbone (Addgene) using In-Fusion HD Cloning Kit (Clontech Laboratories, CA). Q5 Site-Directed Mutagenesis Kit was used to generate mTrpa1 mutant (M1-M13) based on pCGN-mTrpa1.
Cell Culture and Transfection. CD4^+ Myla cell line was cultured in RPMI 1640 media (GIBCO), supplemented with 2 mM Glutamine (GIBCO), 100 U/mL IL-2 (Sigma), 100 U/mL IL-4 (Sigma), and 10% human AB serum (Sigma). HuT 102 cell line was cultured in RPMI 1640 supplemented with pyruvate, HEPES, and 10% (v/v) fetal bovine serum (HyClone). HEK293-hTRPA1 stable cell line was cultured in MEM (GIBCO) containing 2 mM Glutamine, 4 μg/mL Blasticidin, 10% FBS (v/v). B16 and CHO cells were cultured in high glucose (4.5 g/L) Dulbecco's Modified Eagle's Medium (GIBCO) containing 10% (v/v) fetal bovine serum (GIBCO). Culture media were supplemented with 50 units/mL of penicillin and 50 μg/mL streptomycin, and cultures were maintained with 5% CO2 in 37° C. incubator. Transfection (2 μg cDNA) was performed with Lipofectamine™ 2000 Reagent (Invitrogen) at 80% confluency and the transfected cells were cultured in the same media for 48 hr before electrophysiological and biochemical studies.
Whole-Cell Patch Clamp Recordings in HEK293 Cells, CHO Cells, and DRG Neurons. Whole-cell patch clamp recordings were performed at room temperature using an Axopatch-200B amplifier (Axon Instruments) with a Digidata 1440B (Axon Instruments). In this study, we only examined small-diameter mouse DRG neurons (<25 μM) and small-diameter human DRG neurons (<55 μM). The patch pipettes were pulled from borosilicate capillaries (World Precision Instruments) using a P-97 Flaming/Brown micropipette puller (Sutter Instrument). Pipette resistance was 4-6 MΩ for whole-cell and outside-out recording. For inward current recordings in mouse and human DRG neurons, HEK293 cells, and CHO cells, the internal solution contains (in mM): 140 CsCl, 10 EGTA, 10 HEPES, and 2 Mg-ATP, adjusted to pH 7.3 with CsOH. Whole cell recordings were performed in an extracellular solution that contains (in mM): 140 NaCl, 5 KCl, 2 MgCl2, 10 HEPES, and 10 glucose, adjusted to pH 7.4 with NaOH and osmolarity to 300-310 mOsm. […] Action potential recordings were performed in small-diameter DRG neurons, with the following solutions: i) internal pipette solution contains: 126 mM K-gluconate, 10 mM NaCl, 1 mM MgCl2, 10 mM EGTA, 10 mM HEPES and 2 mM Na-ATP, adjusted to pH 7.4 with KOH and osmolarity to 295-300 mOsm), and ii) extracellular solution contains: 140 mM NaCl, 5 mM KCl, 2 mM MgCl2, 2 mM CaCl2, 10 mM HEPES, 10 mM glucose, adjusted to pH 7.4 with KOH.

CTCL mice = assay: Mouse CTCL xenograft model of chronic itch; type: in vivo; details: given 20 days after Myla cell inoculation; for effect on CTCL-evoked chronic itch: hsa-miR-711 inhibitor 100 μM, HC030031 200 μM, A967079 50 μM, peptides 2 mM
Experimental: Mouse CTCL Xenograft Model of Chronic Itch. We developed a murine xenograft model of cutaneous T cell lymphoma (CTCL) using immune-deficient mice (NOD.CB17-Prkdcscid, 8-10 weeks old, male). CD4^+ MyLa cell line was purchased from Sigma (Ca #95051032). The cell line was established from a plaque biopsy of a person with mycosis fungoides stage II by inclusion of IL-2 and IL-4 in the culture medium. CTCL was generated via intradermal injection of CD4^+ Myla cells (1×10^5 cells/μl, 100 μL) on the nape of the neck. Tumor growth was assessed for 40 days by measurements of tumor diameters.
Behavioral Assessment for Scratching (Itch) and Wiping (Pain). Mice were shaved on the cheek or nape after a brief anesthesia with isoflurane. Before experiments, mice were habituated in small plastic chambers (14×18×12 cm) daily for two days. The room temperature and humidity remained stable for all the experiments. […] After the injection, the number of scratches in 60 min was counted. A scratch was counted when a mouse lifted its hind paw to scratch the shaved region and returned the paw to the floor or to the mouth. A bout of wiping was defined as a continuous wiping movement with a forepaw directing at the area of the injection area (Shimada and LaMotte, Pain 2008, 139, 681-687). Scratching and wiping behavior was videoed for 30 min or 60 min using Sony HDR-CX610 camera. The video was subsequently played back offline and the numbers of scratches and wipes were quantified in a blinded manner.
Generation of Myla Stable Cell Line Expressing miR-711 Inhibitor. CD4^+ Myla cells were plated at a density of 2×10^5 cells/mL in 2 mL culture media in 6-well plates. For each well, 20 μL of the MISSION Lenti microRNA Inhibitor (hsa-miR-711) lentivirus (Sigma) with a titer of 2.6×10^7 Tu/mL were added. Cell mixtures were incubated at 37° C. for 48 hr, washed with PBS three times, and re-suspended in fresh culture media, and 24 hr later, 1 μg/mL puromycin was added to the cells to select stably transduced cell populations. We tried to grow and passage the cells as much as necessary (usually 3 days) and maintained selection pressure by keeping 1 μg/mL puromycin in the medium. After 4 weeks, a large number of the cells were killed; the remaining cells retained the expression of the plasmid, which stably integrates into the genome of the targeted cells. These cells were used for inoculation to generate the CTCL model for testing the effects of miR-711 inhibitor on chronic itch and tumor growth.

Compound | effect of mutations on induced currents (mTRPA1 mutants (M1-M13)) | induced currents in mutants (mTRPA1 mutants (M1-M13)) | effect on CTCL-evoked chronic itch (CTCL mice) | AITC-induced currents in mutants (mTRPA1 mutants (M1-M13); M2, M3, M4, M5, M10, M11, and M13) | duration of reduction of CTCL-evoked chronic itch (CTCL mice; 2 mM)
miR-711: mmu-miR-711: gggacccggggagagauguaag (SEQ ID NO: 5) (GGGACCCGGGGAGAGAUGUAAG; chemistry not given here) | no effects | substantial reductions | – | – | –
CCC(=N\O)/C(C)=C/c1ccc(F)cc1 [A967079, (1E,3E)-1-(4-Fluorophenyl)-2-methyl-1-pentene-3-one oxime] | – | – | suppressed | – | –
C=CCN=C=S [AITC] | no effects | substantial reductions | – | unaltered | –
NH2-FRNELAYPVLTFGQL-COOH (H-FRNELAYPVLTFGQL-OH) [blocking peptide] | – | – | effectively reduced | – | more than 5 hr
